Test [1] in a line: Inhibition of rat liver CK2 by Lineweaver-Burke double reciprocal plot analysis.
A short description of test [2]: Inhibition of PKA.
The nature of test [3]: Inhibition of PKC.
The nature of test [4]: Inhibition of rat liver CK2 catalytic activity.

This note sets out measurements from ChEMBL document CHEMBL1136907, “Structural insight into human CK2alpha in complex with the potent inhibitor ellagic acid” (Bioorg Med Chem Lett, 2009).

One may read the Ki as the equilibrium dissociation constant of an inhibitor or competing ligand from its target. As a reminder, the IC50 is the midpoint of a concentration-inhibition curve. For the compound `O=c1oc2c(O)c(O)cc3c(=O)oc4c(O)c(O)cc1c4c23` [ELLAGIC ACID], the Ki in test [1] was determined as 0.02 µM. Further, the IC50 in test [2] was 2 µM; in test [3], 8 µM; in test [4] it was 0.04 µM.
